Experimental data reported in patent publication US7875604B2, “Compounds that inhibit HIV particle formation” (University of Virginia Patent Foundation, priority 2004, dated 2011).
pIC50: −log10 of the molar value. Several values for one entry are separate records, joined by “and”; a condition that tells them apart may be missing. Equal entries are not always repeated. Where two headings read alike, the source gives them in different places.

How the values were obtained:
[1] = target: T1, HIV-1 Rev (Human immunodeficiency virus type 1 group M subtype B, UniProt P04618); test: cell-based
T1 construct: expressed in transfected cells
T1 sequence (P04618 whole entry, looked up): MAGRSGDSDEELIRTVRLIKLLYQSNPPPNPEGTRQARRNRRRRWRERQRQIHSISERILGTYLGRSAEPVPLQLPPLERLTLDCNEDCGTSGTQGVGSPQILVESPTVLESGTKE
Description: The eight compounds listed in Table 1 were also tested in an assay that measured HIV-1 Rev function. […] The reporter used for these assays is the Renilla Luciferase protein, which is an enzyme that produces detectable light when mixed with certain chemicals. For this assay, a cell line has been developed in which the production of the reporter by the cells requires the function of HIV-1 Rev. Therefore, if a drug candidate inhibits the function of Rev, it decreases the amount of the reporter produced by the cells. By using Renilla Luciferase as the reporter, the inhibition of Rev is easily detected as a decrease in the amount of light produced by the cells when mixed with the appropriate chemicals.
(§1) Compounds were tested in the Rev assay using the maximum high-test concentration possible based on the supplied stocks as shown in Table 3. Compounds were prepared at a 2× high-test concentration by combining drug stock with tissue culture media at a ratio of 5 μL of drug to 995 μL of media. This 2× high-test sample was subsequently serially diluted in tissue culture media using 1/2 log dilutions. This series of 2× concentrated drug was subsequently diluted 1:1 by combining with an equal volume of cells in media in the 96-well plates used for the assay.

[2] = test system: HeLa; test: HIV-1 Rev assay toxicity/non-specificity readout (Firefly Luciferase); assay type: cell-based; settings: 50% inhibition of Firefly Luciferase (toxicity/non-specificity), 24 hours; read-out: TC50 (the source's name)
Description: The eight compounds listed in Table 1 were also tested in an assay that measured HIV-1 Rev function. The HIV-1 Rev assay is based upon the use of a reporter for detecting whether drug candidates are capable of inhibiting the function of the viral Rev protein. The reporter used for these assays is the Renilla Luciferase protein, which is an enzyme that produces detectable light when mixed with certain chemicals. For this assay, a cell line has been developed in which the production of the reporter by the cells requires the function of HIV-1 Rev. Therefore, if a drug candidate inhibits the function of Rev, it decreases the amount of the reporter produced by the cells. By using Renilla Luciferase as the reporter, the inhibition of Rev is easily detected as a decrease in the amount of light produced by the cells when mixed with the appropriate chemicals. Furthermore, the cell line for this assay has been engineered to use a second similar reporter (Firefly Luciferase) that detects whether drug candidates are toxic.
as §1, with “assay. Representative data for two of the compounds is also depicted in FIG. 5.” for “assay.”
Leptomycin B is a control compound known to inhibit Rev function.

[3] = MTS staining for cell viability in U1 cell assay; assay type: cell-based; settings: human, U1 cells stimulated with TNF-α, read-out: TC50
Description: (§2) At the time of the assay, cells were collected by centrifugation and counted by hemacytometer. If cell viability by Trypan Blue dye exclusion was less than 70% the assay was terminated. The cells were adjusted to 5×10^4 cells/mL and 100 μL placed in 96 well plates with 100 μL media containing a final concentration of 5 ng/mL TNF-α and the test compound. Cultures were incubated for 3 days and supernatants harvested. Compound toxicity was determined by MTS dye reduction. Virus expression was measured by supernatant reverse transcriptase activity.
(§3) At assay termination, the assay plates were stained with the soluble tetrazolium-based dye MTS (CellTiter 96 Reagent, Promega) to determine cell viability and quantify compound toxicity as described for the PBMC assay.
as §1, with “U1 latency” for “Rev”, “which are listed” for “as shown”, “table” for “Table”, “3. Compounds were tested using the maximum high-test concentration possible based on the supplied stocks.” for “3.”, “assay. Temacrazine a known inhibitor of HIV transcription was used as a control compound that is active in the post-integration part of the HIV life cycle.” for “assay.”
as §1, with “were tested using the” for “were tested in the Rev assay using the”, “the supplied stocks. Compounds were” for “the supplied stocks as shown in Table 3. Compounds were”, “2× high-test (HT) sample was” for “2× high-test sample was”

[4] = test system: U1 cells latently infected with HIV-1; test: U1 latency activation assay (TNF-α induced, supernatant reverse transcriptase); assay type: cell-based; settings: U1 cell assay
Description: U1 cells were obtained from the AIDS Research and Reference Reagent Program and maintained under standard culture conditions in RPMI 1640 supplemented with 10% fetal bovine serum (heat inactivated), 2 mM L-glutamine, 100 U/mL penicillin and 100 μg/mL streptomycin. U1 cells are derived from the histocytic leukemia cell line U937, and contain an integrated copy of a cytokine and/or phorbol inducible provirus (HIV-1IIIB). Cultures were maintained in such a way as to ensure exponential growth of the populations. Addition of TNF-α to the cell culture induces HIV-1, so that inhibition of virus production indicates an inhibition of a post-integration function of the HIV-1 life cycle. This is where an inhibitor of Rev function would be expected to act. […]
as §2
Reverse transcriptase was assayed to measure virus particle release as described above for the PBMC assay.
as §1, with “U1 latency” for “Rev”, “which are listed” for “as shown”, “table” for “Table”, “3. Compounds were tested using the maximum high-test concentration possible based on the supplied stocks.” for “3.”, “assay. Temacrazine a known inhibitor of HIV transcription was used as a control compound that is active in the post-integration part of the HIV life cycle.” for “assay.”
as §1, with “were tested using the” for “were tested in the Rev assay using the”, “the supplied stocks. Compounds were” for “the supplied stocks as shown in Table 3. Compounds were”, “2× high-test (HT) sample was” for “2× high-test sample was”

[5] = test system: HIV-1 BR/93/021; test: Anti-HIV efficacy in fresh human PBMCs, reverse transcriptase readout, HIV-1 BR/93/021; assay type: cell-based
Description: (§4) Compounds were evaluated for their ability to inhibit HIV replication in fresh human PBMCs. The assay was performed as follows.
(§5) Fresh human PBMCs, seronegative for HIV and HBV, were isolated from screened donors (Interstate Blood Bank, Inc. Memphis, Tenn.). Cells were pelleted/washed 2-3 times by low speed centrifugation and re-suspension in PBS to remove contaminating platelets. The Leukophoresed blood was then diluted 1:1 with Dulbecco's Phosphate Buffered Saline (DPBS) and layered over 14 mL of Lymphocyte Separation Medium (LSM; Cellgro® by Mediatech, Inc.; density 1.078+/−0.002 g/ml; Cat.#85-072-CL) in a 50 mL centrifuge tube and then centrifuged for 30 minutes at 600×g. Banded PBMCs were gently aspirated from the resulting interface and subsequently washed 2× with PBS by low speed centrifugation. After the final wash, cells were enumerated by trypan blue exclusion and re-suspended at 1×10^7 cells/mL in RPMI 1640 supplemented with 15% Fetal Bovine Serum (FBS), and 2 mM L-glutamine, 4 μg/mL Phytohemagglutinin (PHA-P, Sigma). The cells were allowed to incubate for 48-72 hours at 37° C. After incubation, PBMCs were centrifuged and resuspended in RPMI 1640 with 15% FBS, 2 mM L-glutamine, 100 U/mL penicillin, 100 μg/mL streptomycin, 10 μg/mL gentamycin, and 20 U/mL recombinant human IL-2 (R&D Systems, Inc). IL-2 is included in the culture medium to maintain the cell division initiated by the PHA mitogenic stimulation. PBMCs were maintained in this medium at a concentration of 1-2×10^6 cells/mL with biweekly medium changes until used in the assay protocol. Cells were kept in culture for a maximum of two weeks before being deemed too old for use in assays and discarded. Monocytes were depleted from the culture as the result of adherence to the tissue culture flask.
(§6) For the standard PBMC assay, PHA-P stimulated cells from at least two normal donors were pooled (mixed together), diluted in fresh medium to a final concentration of 1×10^6 cells/mL, and plated in the interior wells of a 96 well round bottom microplate at 50 μL/well (5×10^4 cells/well) in a standard format developed by the Infectious Disease Research department of Southern Research Institute. Pooling (mixing) of mononuclear cells from more than one donor is used to minimize the variability observed between individual donors, which results from quantitative and qualitative differences in HIV infection and overall response to the PHA and IL-2 of primary lymphocyte populations. Each plate contains virus/cell control wells (cells plus virus), experimental wells (drug plus cells plus virus) and compound control wells (drug plus media without cells, necessary for MTS monitoring of cytotoxicity). Since HIV-1 is not cytopathic to PBMCs, this allows the use of the same assay plate for both antiviral activity and cytotoxicity measurements. Test drug dilutions were prepared at a 2× concentration in microtiter tubes and 100 μL of each concentration was placed in appropriate wells using the standard format. 50 μL of a predetermined dilution of virus stock was placed in each test well (final MOI≅0.1). The PBMC cultures were maintained for seven days following infection at 37° C., 5% CO2. After this period, cell-free supernatant samples were collected for analysis of reverse transcriptase activity as a measure of virus release. Following removal of supernatant samples, compound cytotoxicity was measured by addition of MTS to the plates for determination of cell viability. Wells were also examined microscopically and any abnormalities were noted.
(§7) A microtiter plate-based reverse transcriptase (RT) reaction was utilized (Buckheit et al., AIDS Research and Human Retroviruses 7:295-302, 1991). Tritiated thymidine triphosphate (3H-TTP, 80 Ci/mmol, NEN) was received in 1:1 dH2O:Ethanol at 1 mCi/mL. […]

[6] = test system: fresh human PBMCs; test: MTS staining for PBMC viability to measure cytotoxicity; assay type: cell-based
Description: as §6
At assay termination, assay plates were stained with the soluble tetrazolium-based dye MTS (CellTiter 96 Reagent, Promega) to determine cell viability and quantify compound toxicity. The mitochondrial enzymes of metabolically active cells metabolize MTS to yield a soluble formazan product. This allows the rapid quantitative analysis of cell viability and compound cytotoxicity. […] At termination of the assay, 20 μL of MTS reagent was added per well. The microtiter plates were then incubated 4-6 hrs at 37° C. The incubation intervals were chosen based on empirically determined times for optimal dye reduction. Adhesive plate sealers were used in place of the lids, the sealed plate was inverted several times to mix the soluble formazan product and the plate was read spectrophotometrically at 490/650 nm with a Molecular Devices Vmax or SpectraMaxPlus plate reader.
as §1, with “PBMC” for “Rev”, “which are listed” for “as shown”, “table” for “Table”

[7] = test system: HIV-1 NL4-3; test: Anti-HIV efficacy in fresh human PBMCs, reverse transcriptase readout, HIV-1 NL4-3; assay type: cell-based
Description: as §4, §5, §6, §7

[8] = test system: U1 cells; test: MTS staining for cell viability in U1 cell assay; assay type: cell-based; settings: analogs, Table 8, MTS, read-out: TC50 (the source's name)
Description: as §2, §3
as §1, with “U1 latency” for “Rev”, “which are listed” for “as shown”, “table” for “Table”, “3. Compounds were tested using the maximum high-test concentration possible based on the supplied stocks.” for “3.”, “assay. Temacrazine a known inhibitor of HIV transcription was used as a control compound that is active in the post-integration part of the HIV life cycle.” for “assay.”
as §1, with “were tested using the” for “were tested in the Rev assay using the”, “the supplied stocks. Compounds were” for “the supplied stocks as shown in Table 3. Compounds were”, “2× high-test (HT) sample was” for “2× high-test sample was”

| Structure (SMILES) | CC50 [8] [µM] | pIC50 ([4]; analogs, Table 8) | other results |
| --- | --- | --- | --- |
| CCC(=C/[C@H](C)C/C=C/C(C)=C/[C@@H](C)C(=O)[C@@H](C)[C@H](O)[C@@H](C)C/C(C)=C/C(=O)O)/C=C/[C@@H]1OC(=O)C=C[C@@H]1C [Leptomycin B, reference compound] | – | – | pIC50 ([1]; 50% inhibition of Renilla Luciferase, 24 hours, HeLa reporter line, read-out: IC50): 8.09; TI (TC50/IC50) ([1]; Rev assay): 2.43 and 2.35; CC50 [2]: 0.02 µM and 0.0192 µM |
| O=c1c2ccccc2n2nnc3ccc(NCCCN4CCN(CCCNc5ccc6nnn7c8ccccc8c(=O)c5c67)CC4)c1c32 [Temacrazine, reference compound] | – | – | CC50 at 3 days ([3]; Table 6, MTS): > 0.5 µM; CC50 at 3 days ([3]; Table 8, control, MTS): > 0.5 µM; pIC50 ([4]; Human immunodeficiency virus 1, 72 h, Table 6, 5 ng/mL TNF-α, 3 days, RT activity): 8.70; TI (TC50/IC50) ([4]; Table 6): >250 |
| Cc1cn([C@H]2C[C@H](N=[N+]=[N-])[C@@H](CO)O2)c(=O)[nH]c1=O [AZT, reference compound] | – | – | TI (TC50/IC50) ([5]; HIV-1 BR/93/021, PBMCs): >404.86; pIC50 ([5]; HIV-1 BR/93/021, fresh human PBMCs, seven days, RT activity): 8.61; CC50 [6]: > 1 µM; TI (TC50/IC50) ([7]; HIV-1 NL4-3, PBMCs): >1612.90; pIC50 ([7]; HIV-1 NL4-3, fresh human PBMCs, seven days, RT activity): 9.21 |
| CCOC(=O)c1sc(Cl)nc1C(F)(F)F [Compound 411] | > 75 | < 4.12 | – |
| Cc1ccc(-c2nc(Nc3ccc(I)cc3)c3ccccc3n2)cc1 [Compound 729] | > 75 | < 4.12 | – |
| Cc1nc(Cl)sc1C(=O)Nc1ccc(C(C)(C)C)cc1 [Compound 420] | > 75 | 5.17 | – |
| COc1ccc2nc3c(c(N)c2c1)CCCC3 [Compound 211] | 48.5 | 5.04 | – |
| O=C(Nc1cccc(C(F)(F)F)c1)c1sc(Cl)nc1C(F)(F)F [Compound 414] | 14.7 | 4.84 | – |
| Cc1ccc(-c2cc(C(F)(F)F)c3c(N)c(C(N)=O)sc3n2)cc1 [Compound 332] | 22.5 | < 4.12 | – |
| COC(=O)c1cccc(Nc2nc(-c3ccccc3O)nc3ccccc23)c1 [Compound 752] | > 75 | < 4.12 | – |
| O=[N+]([O-])c1ccc(-c2cnc(NO)nc2)cc1 [Compound 614] | > 75 | < 4.12 | – |
| COc1ccccc1Nc1nc(-c2ccccc2O)nc2ccccc12 [Compound 751] | > 75 | 4.15 | – |
